Literature values in article PMC12150326 (The Journal of Organic Chemistry, 2025).
Values joined by “and” are separate entries in the source; they are usually repeats but may differ in a detail not shown here. Identical values can stand only once. Like-named read-outs stand apart in the source and are kept apart here.

Experiments:
Set-up in all cases: method as in NCI-60 database
RPMI-8226 = RPMI-8226 ref NCI-60 database, cited from earlier work
SR = SR ref NCI-60 database, cited from earlier work
HOP-62 = HOP-62 ref NCI-60 database, cited from earlier work
NCI-H522 = NCI-H522 ref NCI-60 database, cited from earlier work
KM12 = details: cited from earlier work
SNB-19 = SNB-19 ref NCI-60 database, cited from earlier work
SNB-75 = SNB-75 ref NCI-60 database, cited from earlier work
U251 = U251 ref NCI-60 database, cited from earlier work
SK-MEL-2 = SK-MEL-2 ref NCI-60 database, cited from earlier work
SK-MEL-5 = SK-MEL-5 ref NCI-60 database, cited from earlier work
OVCAR-8 = OVCAR-8 ref NCI-60 database, cited from earlier work
ACHN = ACHN ref NCI-60 database, cited from earlier work
UO-31 = UO-31 ref NCI-60 database, cited from earlier work
PC-3 = PC-3 ref NCI-60 database, cited from earlier work
DU-145 = DU-145 ref NCI-60 database, cited from earlier work
MDA-MB-231/ATCC = MDA-MB-231/ATCC ref NCI-60 database, cited from earlier work
MDA-N = MDA-N ref NCI-60 database, cited from earlier work
RXF-631 = RXF-631 ref NCI-60 database, cited from earlier work
[1] = KM12 ref NCI-60 database, listed as 757/9

COc1cc2c(c(OC)c1OC)-c1ccc(OC)c(=O)cc1[C@@H](NC(C)=O)CC2 [Colchicine, (−)-Colchicine]
GI50 (RPMI-8226): < 10 nM
Log10GI50 (RPMI-8226): < -8 Molar
Log10LC50 (RPMI-8226): > -4.00 Molar
Log10TGI (RPMI-8226): > -4.00 Molar
Log10GI50 (RPMI-8226; listed as 757/1): < -8.00 Molar
GI50 (SR): 30 nM
Log10GI50 (SR): -7.49 Molar
Log10LC50 (SR): > -4.00 Molar
Log10GI50 (SR; listed as 757/9): < -8.00 Molar
Log10TGI (SR; listed as 757/9): -7.47 Molar
Log10TGI (SR; listed as 757/21): > -4.00 Molar
Log10LC50 (HOP-62): > -4.00 Molar
Log10TGI (HOP-62): > -4.00 Molar
Log10GI50 (HOP-62; listed as 757/9): -7.43 Molar
GI50 (NCI-H522): 10 nM
Log10GI50 (NCI-H522): -7.84 Molar
Log10LC50 (NCI-H522): > -4.00 Molar
Log10GI50 (NCI-H522; listed as 757/1): -7.64 Molar
Log10TGI (NCI-H522; listed as 757/1): -7.26 Molar
Log10TGI (NCI-H522; listed as 757/9): -7.46 Molar
Log10GI50 (NCI-H522; listed as 757/21): < -8.00 Molar and -7.98 Molar and -7.84 Molar
GI50 (KM12; KM12 (printed KM29) ref NCI-60 database): 40 nM
Log10GI50 (KM12; KM12 ref NCI-60 database): -7.35 Molar
Log10GI50 (KM12; KM12 ref NCI-60 database, listed as 757/1): -7.65 Molar
Log10GI50 (KM12; [1]): -7.67 Molar
Log10LC50 (KM12; [1]): -7.04 Molar
Log10TGI (KM12; [1]): -7.95 Molar
Log10LC50 (KM12; KM12 ref NCI-60 database, listed as 757/21): > -4.00 Molar
GI50 (SNB-19): 40 nM
Log10GI50 (SNB-19): -7.43 Molar
Log10LC50 (SNB-19): > -4.00 Molar
Log10GI50 (SNB-19; listed as 757/1): < -8.00 Molar
Log10GI50 (SNB-19; listed as 757/9): -7.55 Molar
Log10GI50 (SNB-19; listed as 757/21): -7.22 Molar and -7.43 Molar
GI50 (SNB-75): 910 nM
Log10GI50 (SNB-75): -6.04 Molar
Log10LC50 (SNB-75): > -4.00 Molar
Log10GI50 (SNB-75; listed as 757/1): < -8.00 Molar
Log10TGI (SNB-75; listed as 757/1): -5.53 Molar
Log10TGI (SNB-75; listed as 757/9): < -8.00 Molar
Log10TGI (SNB-75; listed as 757/21): > -4.00 Molar
GI50 (U251): 30 nM
Log10GI50 (U251): -7.53 Molar
Log10GI50 (U251; listed as 757/1): -7.38 Molar
Log10LC50 (U251; listed as 757/1): > -4.00 Molar
Log10TGI (U251; listed as 757/1): > -4.00 Molar
Log10GI50 (U251; listed as 757/9): -7.47 Molar
Log10LC50 (U251; listed as 757/21): -4.31 Molar
Log10TGI (U251; listed as 757/21): -6.89 Molar and -6.80 Molar
GI50 (SK-MEL-2): < 10 nM
Log10GI50 (SK-MEL-2): < -8 Molar
Log10LC50 (SK-MEL-2): > -4.00 Molar
Log10GI50 (SK-MEL-2; listed as 757/1): -7.53 Molar
Log10TGI (SK-MEL-2; listed as 757/1): < -8.00 Molar
Log10GI50 (SK-MEL-2; listed as 757/21): < -8.00 Molar
Log10TGI (SK-MEL-2; listed as 757/21): > -4.00 Molar
GI50 (SK-MEL-5): < 10 nM
Log10GI50 (SK-MEL-5): < -8 Molar
Log10GI50 (SK-MEL-5; listed as 757/1): -7.61 Molar
Log10TGI (SK-MEL-5; listed as 757/9): -7.58 Molar
Log10GI50 (SK-MEL-5; listed as 757/21): < -8.00 Molar
Log10LC50 (SK-MEL-5; listed as 757/21): > -4.00 Molar
Log10TGI (OVCAR-8; listed as 757/1): > -4.00 Molar
Log10LC50 (OVCAR-8; listed as 757/9): -7.11 Molar
Log10LC50 (OVCAR-8; listed as 757/21): > -4.00 Molar
GI50 (ACHN): 372 nM
Log10GI50 (ACHN): -6.43 Molar
Log10LC50 (ACHN): > -4.00 Molar
Log10TGI (ACHN): > -4.00 Molar
Log10GI50 (ACHN; listed as 757/21): -6.40 Molar and -6.43 Molar
GI50 (UO-31): 513 nM
Log10GI50 (UO-31): -6.29 Molar
Log10LC50 (UO-31): > -4.00 Molar
Log10TGI (UO-31; listed as 757/9): -6.03 Molar
Log10TGI (UO-31; listed as 757/21): -4.19 Molar and > -4.00 Molar
GI50 (PC-3): 24 nM
Log10GI50 (PC-3): -7.62 Molar
Log10LC50 (PC-3): > -4.00 Molar
Log10GI50 (PC-3; listed as 757/9): -7.65 Molar
Log10TGI (PC-3; listed as 757/9): -6.37 Molar
Log10GI50 (PC-3; listed as 757/21): -7.62 Molar
Log10TGI (PC-3; listed as 757/21): > -4.00 Molar
GI50 (DU-145): 8.32 µM
Log10GI50 (DU-145): -5.08 Molar
Log10LC50 (DU-145): > -4.00 Molar
Log10GI50 (DU-145; listed as 757/9): -7.29 Molar
Log10TGI (DU-145; listed as 757/9): -5.83 Molar
Log10GI50 (DU-145; listed as 757/21): -5.08 Molar
Log10TGI (DU-145; listed as 757/21): > -4.00 Molar
GI50 (MDA-MB-231/ATCC): 7.08 µM
Log10GI50 (MDA-MB-231/ATCC): -5.15 Molar
Log10LC50 (MDA-MB-231/ATCC): > -4.00 Molar
Log10TGI (MDA-MB-231/ATCC): > -4.00 Molar
Log10GI50 (MDA-MB-231/ATCC; listed as 757/9): < -8.00 Molar and -7.78 Molar
Log10GI50 (MDA-MB-231/ATCC; listed as 757/21): -5.15 Molar
Log10GI50 (MDA-N): < -8.00 Molar
Log10LC50 (MDA-N): > -4.00 Molar
Log10TGI (MDA-N; listed as 757/9): < -8.00 Molar and -7.91 Molar
Log10TGI (MDA-N; listed as 757/21): -4.25 Molar
Log10LC50 (RXF-631): > -4.00 Molar
Log10TGI (RXF-631): > -4.00 Molar
Log10GI50 (RXF-631; listed as 757/21): -7.45 Molar
